# Measured values: patent publication US5698547A, “Cephalosporin antibiotics” (Microcide Pharmaceuticals, Inc., priority 1995, dated 1997)
# Counter-ions that a name gives are not always drawn.
# Test system: S. aureus Col (Meth^R) (lac^-)
# Assay: MIC by agar dilution, S. aureus Col (Meth^R) (lac^-)
# Assay type: cell-based
# Conditions: Staphylococcus aureus; agar dilution; S. aureus Col (Meth^R) (lac^-); read-out: MIC
# Outline: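 Log-phase isolates were spot-inoculated at about 10^4 cfu onto Mueller-Hinton agar carrying duplicate two-fold compound levels, 128 μg/mL to ≤0.25 μg/mL, following NCCLS (1991). Plates were read after 16-20 h at 35°-36° C. The lowest growth-inhibiting concentration gave the MIC (μg/ml).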
row,Structure (SMILES),MIC [µg/mL]
1,"O=C(Cc1ccccc1)N[C@@H]1C(=O)N2C(C(=O)O)=C(Sc3ccc4ccccc4c3Br)CS[C@H]12 [Cmpd 57, (7R)-7-[(Phenylacetyl)amino]-3-(1-bromo-naphthalen-2-ylthio)-3-cephem-4-carboxylic acid]",0.5
2,"C=Cc1ccccc1SC1=C(C(=O)O)N2C(=O)[C@@H](NC(=O)Cc3ccccc3)[C@H]2SC1 [Cmpd 36, (7R)-7-[(Phenylacetyl)amino]-3-(2-vinylphenylthio)-3-cephem-4-carboxylic acid]",2
3,"C[n+]1ccc(SCc2ccccc2SC2=C(C(=O)[O-])N3C(=O)[C@@H](NC(=O)Cc4ccccc4)[C@H]3SC2)cc1 [Cmpd 73, (7R)-7-[(Phenylacetyl)amino]-3-(2-(N-methylpyridin-4-ium)thiomethyl)phenylthio)-3-cephem-4-carboxylate, inner salt]",4
4,"O=C(Cc1ccccc1)N[C@@H]1C(=O)N2C(C(=O)O)=C(Sc3cc(F)ccc3Br)CS[C@H]12 [Cmpd 33, (7R)-7-[(Phenylacetyl)amino]-3-(2-bromo-5-fluorophenylthio)-3-cephem-4-carboxylic acid]",1
5,"CN(C)C(SCc1ccccc1SC1=C(C(=O)[O-])N2C(=O)[C@@H](NC(=O)Cc3ccccc3)[C@H]2SC1)=[N+](C)C [Cmpd 69, (7R)-7-[(Phenylacetyl)amino]-3-(2-tetramethylisothiouroniummethylphenylthio)-3-cephem-4-carboxylate, inner salt]",4
6,"O=C(Cc1ccccc1)N[C@@H]1C(=O)N2C(C(=O)O)=C(Sc3ccccc3-n3cccn3)CS[C@H]12 [Cmpd 132, (7R)-7-[(Phenylacetyl)amino]-3-(2-(pyrazol-1-yl)phenylthio)-3-cephem-4-carboxylic acid]",8
7,"N#CCC(=O)N[C@@H]1C(=O)N2C(C(=O)O)=C(Sc3ccccc3C#N)CS[C@H]12 [Cmpd 52, (7R)-7-[(Cyanoacetyl)amino]-3-(2-cyanophenylthio)-3-cephem-4-carboxylic acid]",4
8,"N#Cc1ccc(SC2=C(C(=O)O)N3C(=O)[C@@H](NC(=O)Cc4ccccc4)[C@H]3SC2)c(C#N)c1 [Cmpd 51, (7R)-7-[(Phenylacetyl)amino]-3-(2,4-dicyanophenylthio)-3-cephem-4-carboxylic acid]",4
9,"COc1ccc(CC(=O)N[C@@H]2C(=O)N3C(C(=O)O)=C(Sc4cc(Cl)ccc4Cl)CS[C@H]23)cc1 [Cmpd 32, (7R)-7-[(p-Methoxyphenylacetyl)amino]-3-(2,5-dichlorophenylthio)-3-cephem-4-carboxylic acid]",1
10,"N#CCC(=O)N[C@@H]1C(=O)N2C(C(=O)O)=C(Sc3ccc(CSC(=N)N)cc3I)CS[C@H]12 [Cmpd 66, (7R)-7-[(Cyanoacetyl)amino]-3-(4-isothiouroniummethyl-2-iodophenylthio)-3-cephem-4-carboxylate, inner salt]",2
11,"O=C(Cc1ccccc1)N[C@@H]1C(=O)N2C(C(=O)O)=C(Sc3ccccc3Br)CS[C@H]12 [Cmpd 4, (7R)-7-[(Phenylacetyl)amino]-3-(o-bromophenylthio)-3-cephem-4-carboxylic acid]",1 to 2
12,"Cn1cc[n+](Cc2ccc(-c3ccccc3SC3=C(C(=O)[O-])N4C(=O)[C@@H](NC(=O)Cc5ccccc5)[C@H]4SC3)s2)c1 [Cmpd 45, (7R)-7-[(Phenylacetyl)amino]-3-(2-(2-(N-methylimidazoliummethyl)thien-5-yl)phenylthio)-3-cephem-4-carboxylic acid]",4
13,"CSCC(=O)N[C@@H]1C(=O)N2C(C(=O)O)=C(Sc3ccccc3CNC(=N)N)CS[C@H]12 [Cmpd 135, (7R)-7-[(Methylthioacetyl)amino]-3-(2-guanidiniummethylphenylthio)-3-cephem-4-carboxylate, inner salt]",8
14,"N=C(N)SCc1ccc(SC2=C(C(=O)O)N3C(=O)[C@@H](NC(=O)Cc4ccccc4)[C@H]3SC2)cc1 [Cmpd 63, (7R)-7-[(Phenylacetyl)amino]-3-(4-isothiouroniummethylphenylthio)-3-cephem-4-carboxylate, inner salt]",4
15,"C[n+]1cccc(SC2=C(C(=O)[O-])N3C(=O)[C@@H](NC(=O)Cc4ccccc4)[C@H]3SC2)c1-c1ccccc1 [Cmpd 82, (7R)-7-[(Phenylacetyl)amino]-3-(2-phenyl-N-methylpyridin-3-iumthio)-3-cephem-4-carboxylate]",4
16,"O=C(Cc1ccccc1)N[C@@H]1C(=O)N2C(C(=O)O)=C(Sc3ccc(Cl)c(Cl)c3)CS[C@H]12 [Cmpd 18, (7R)-7-[(Phenylacetyl)amino]-3-(3,4-dichlorophenylthio)-3-cephem-4-carboxylic acid]",4

row,Structure (SMILES),MIC [µg/mL]
1,"O=Cc1ccccc1SC1=C(C(=O)O)N2C(=O)[C@@H](NC(=O)Cc3ccccc3)[C@H]2SC1 [Cmpd 50, (7R)-7-[(Phenylacetyl)amino]-3-(2-formylphenylthio)-3-cephem-4-carboxylic acid]",2
2,"Nc1nc(/C(=N/OCCF)C(=O)N[C@@H]2C(=O)N3C(C(=O)O)=C(Sc4ccnn4-c4ccccc4)CS[C@H]23)c(Cl)s1 [Cmpd 98, (7R)-7-[(Z)-2-(2-amino-5-chlorothiazol-4-yl)-2-(2-fluoroethyloxyimino)acetamido]-3-(1-N-phenylpyrazol-5-ylthio)-3-cephem-4-carboxylic acid]",2
3,"O=C(Cc1ccccc1)N[C@@H]1C(=O)N2C(C(=O)O)=C(Sc3ccc(C(F)(F)F)cc3)CS[C@H]12 [Cmpd 40, (7R)-7-[(Phenylacetyl)amino]-3-(4-trifluoromethylphenylthio)-3-cephem-4-carboxylic acid]",4
4,"N=C(N)SCc1cccc(SC2=C(C(=O)O)N3C(=O)[C@@H](NC(=O)Cc4ccccc4)[C@H]3SC2)c1 [Cmpd 80, (7R)-7-[(Phenylacetyl)amino]-3-(3-isothiouroniummethylphenylthio)-3-cephem-4-carboxylate, inner salt]",2
5,"O=C(Cc1ccccc1)N[C@@H]1C(=O)N2C(C(=O)O)=C(Sc3ccc(-c4ccccc4)cc3)CS[C@H]12 [Cmpd 8, (7R)-7-[(Phenylacetyl)amino]-3-(4-biphenylthio)-3-cephem-4-carboxylic acid]",4
6,"O=C(Cc1ccccc1)N[C@@H]1C(=O)N2C(C(=O)O)=C(Sc3ccc(Cl)cc3Cl)CS[C@H]12 [Cmpd 28, (7R)-7-[(Phenylacetyl)amino]-3-(2,4-dichlorophenylthio)-3-cephem-4-carboxylic acid]",1
7,"O=C(Cc1ccccc1)N[C@@H]1C(=O)N2C(C(=O)O)=C(Sc3ccnn3-c3ccc(F)cc3)CS[C@H]12 [Cmpd 123, (7R)-7-[(Phenylacetyl)amino]-3-(1-N-(4-fluorophenyl)pyrazol-5-ylthio)-3-cephem-4-carboxylic acid]",4
8,"O=C(Cc1ccccc1)N[C@@H]1C(=O)N2C(C(=O)O)=C(Sc3ccc(CSc4ncn[nH]4)cc3)CS[C@H]12 [Cmpd 65, (7R)-7-[(Phenylacetyl)amino]-3-(4-(1,2,4-triazol-5-ylthiomethyl)phenylthio)-3-cephem-4-carboxylic acid]",8
9,"O=C(Cc1ccccc1)N[C@@H]1C(=O)N2C(C(=O)O)=C(Sc3ccc(-c4ccccc4)cc3Br)CS[C@H]12 [Cmpd 11, (7R)-7-[(Phenylacetyl)amino]-3-(2-bromo-4-biphenylthio)-3-cephem-4-carboxylic acid]",1
10,"O=C(Cc1ccccc1)N[C@@H]1C(=O)N2C(C(=O)O)=C(Sc3ccc(Cl)cc3)CS[C@H]12 [Cmpd 3, (7R)-7-[(Phenylacetyl)amino]-3-(p-chlorophenylthio)-3-cephem-4-carboxylic acid]",2
11,"Nc1nc(/C(=N/O)C(=O)N[C@@H]2C(=O)N3C(C(=O)O)=C(Sc4ccccc4I)CS[C@H]23)cs1 [Cmpd 22, (7R)-7-[(Z)-2-(aminothiazol-4-yl)-2-(hydroxyimino)acetamido]-3-(o-iodophenylthio)-3-cephem-4-carboxylic acid]",2
12,"COc1ccc(CC(=O)N[C@@H]2C(=O)N3C(C(=O)O)=C(Sc4ccccc4I)CS[C@H]23)cc1 [Cmpd 29, (7R)-7-[(p-Methoxyphenylacetyl)amino]-3-(o-iodophenylthio)-3-cephem-4-carboxylic acid]",1
13,"N#Cc1ccc(SC2=C(C(=O)O)N3C(=O)[C@@H](NC(=O)Cc4ccccc4)[C@H]3SC2)c([N+](=O)[O-])c1 [Cmpd 49, (7R)-7-[(Phenylacetyl)amino]-3-(4-cyano-2-nitrophenylthio)-3-cephem-4-carboxylic acid]",4
14,Nc1nnc(SCC(=O)N[C@@H]2C(=O)N3C(C(=O)O)=C(Sc4ccnn4-c4ccccc4)CS[C@H]23)s1 [Cmpd 120],8
15,"O=C(Cc1ccccc1)N[C@@H]1C(=O)N2C(C(=O)O)=C(Sc3nnnn3-c3ccccc3)CS[C@H]12 [Cmpd 94, (7R)-7-[(Phenylacetyl)amino]-3-(1-N-phenyltetrazol-5-ylthio)-3-cephem-4-carboxylic acid]",4
